In ChEMBL document CHEMBL1201862, “PubChem BioAssay data set” (2004):
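Five concentrations, 48 hours, 96-well plates. GI50 is the concentration that inhibits growth by half.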 The source made the active and inactive calls. Rule as the data show it: active = GI50 up to about 1.1 µM and inactive = higher.

Tests used:
Assay in all cases: inhibition of tumour cell growth, NCI panel, 48 h
A549 = tested on: A549
BT-549 = tested on: BT-549
DU-145 = tested on: DU-145
EKVX = tested on: EKVX
HCC 2998 = tested on: HCC 2998
HCT-15 = tested on: HCT-15
HOP-62 = tested on: HOP-62
KM12 = tested on: KM12
M14 = tested on: M14
MCF7 = tested on: MCF7
OVCAR-3 = tested on: OVCAR-3
OVCAR-4 = tested on: OVCAR-4
OVCAR-8 = tested on: OVCAR-8
RPMI-8226 = tested on: RPMI-8226
RXF 393 = tested on: RXF 393
SF-268 = tested on: SF-268
SK-OV-3 = tested on: SK-OV-3
SNB-19 = tested on: SNB-19
SR = tested on: SR
UO-31 = tested on: UO-31

| SMILES | GI50 (A549) | GI50 (BT-549) | GI50 (DU-145) | GI50 (EKVX) | GI50 (HCC 2998) | GI50 (HCT-15) | GI50 (HOP-62) | GI50 (KM12) | GI50 (M14) | GI50 (MCF7) | GI50 (OVCAR-3) | GI50 (OVCAR-4) | GI50 (OVCAR-8) | GI50 (RPMI-8226) | GI50 (RXF 393) | GI50 (SF-268) | GI50 (SK-OV-3) | GI50 (SNB-19) | GI50 (SR) | GI50 (UO-31) |
| --- | --- | --- | --- | --- | --- | --- | --- | --- | --- | --- | --- | --- | --- | --- | --- | --- | --- | --- | --- | --- |
| O=C(O)CCCSc1ccccc1 | > 100 µM (inactive) | > 100 µM (inactive) | > 100 µM (inactive) | > 100 µM (inactive) | > 100 µM (inactive) | > 100 µM | > 100 µM (inactive) | > 100 µM (inactive) | > 100 µM (inactive) | > 100 µM (inactive) | > 100 µM (inactive) | > 100 µM (inactive) | > 100 µM (inactive) | > 100 µM (inactive) | > 100 µM (inactive) | > 100 µM (inactive) | > 100 µM (inactive) | > 100 µM (inactive) | > 100 µM (inactive) | > 100 µM (inactive) |
| COC(=O)c1ccc2c(O)c(O)ccc2c1 | 22.2 µM (inactive) | 12.5 µM (inactive) | 16.4 µM (inactive) | 22.8 µM (inactive) | 15.1 µM (inactive) | 13.6 µM | 18.9 µM (inactive) | 17.1 µM (inactive) | 16.4 µM (inactive) | 18.5 µM (inactive) | 7 µM (inactive) | 14.6 µM (inactive) | 16.1 µM (inactive) | 14.7 µM (inactive) | 17.6 µM (inactive) | 19.4 µM (inactive) | 18.1 µM (inactive) | 14.4 µM (inactive) | 2.6 µM (inactive) | 20.7 µM (inactive) |
| CC(Oc1ccccc1)C(=O)NN (stereo not given) | > 100 µM (inactive) | > 100 µM (inactive) | > 100 µM (inactive) | > 100 µM (inactive) | > 100 µM (inactive) | > 100 µM | > 100 µM (inactive) | > 100 µM (inactive) | > 100 µM (inactive) | > 100 µM (inactive) | > 100 µM (inactive) | > 100 µM (inactive) | > 100 µM (inactive) | > 100 µM (inactive) | > 100 µM (inactive) | > 100 µM (inactive) | > 100 µM (inactive) | > 100 µM (inactive) | > 100 µM (inactive) | > 100 µM (inactive) |
| CCOC(=O)C(NC(=O)CC)(Nc1ccc(F)c(Cl)c1)C(F)(F)F (stereo not given) | > 100 µM (inactive) | > 100 µM (inactive) | > 100 µM (inactive) | > 100 µM (inactive) | > 100 µM (inactive) | > 83.4 µM | > 100 µM (inactive) | 35.8 µM (inactive) | 40.5 µM (inactive) | > 100 µM (inactive) | > 100 µM (inactive) | > 100 µM (inactive) | > 100 µM (inactive) | > 63.2 µM (inactive) | > 100 µM (inactive) | > 100 µM (inactive) | > 100 µM (inactive) | > 100 µM (inactive) | > 45.6 µM (inactive) | > 100 µM (inactive) |
| Cc1ccc(NC(=O)C(=O)CC(=O)c2sc(Nc3c(C)cccc3C)nc2C)cc1C | > 100 µM (inactive) | > 100 µM (inactive) | > 100 µM (inactive) | > 100 µM (inactive) | > 100 µM (inactive) | > 100 µM | > 100 µM (inactive) | > 100 µM (inactive) | > 100 µM (inactive) | > 100 µM (inactive) | > 100 µM (inactive) | > 100 µM (inactive) | > 100 µM (inactive) | > 100 µM (inactive) | > 100 µM (inactive) | > 100 µM (inactive) | > 100 µM (inactive) | > 100 µM (inactive) | 37.3 µM (inactive) | 81.8 µM (inactive) |
| CN(C(=O)CC(=O)CP(=O)(c1ccccc1)c1ccccc1)c1ccccc1 | > 100 µM (inactive) | > 100 µM (inactive) | > 100 µM (inactive) | > 100 µM (inactive) | > 100 µM (inactive) | > 100 µM | > 100 µM (inactive) | > 100 µM (inactive) | > 100 µM (inactive) | > 100 µM (inactive) | > 100 µM (inactive) | > 100 µM (inactive) | > 100 µM (inactive) | > 100 µM (inactive) | > 100 µM (inactive) | > 100 µM (inactive) | > 100 µM (inactive) | > 100 µM (inactive) | > 100 µM (inactive) | > 100 µM (inactive) |
| CCC(C#N)(c1ccccc1)N(CCc1ccccc1)C(=O)c1ccccc1 (stereo not given) | 77.1 µM (inactive) | 70.8 µM (inactive) | > 100 µM (inactive) | > 100 µM (inactive) | 54.7 µM (inactive) | > 100 µM | 15.9 µM (inactive) | > 100 µM (inactive) | > 100 µM (inactive) | > 100 µM (inactive) | 85.9 µM (inactive) | 10.8 µM (inactive) | 20 µM (inactive) | > 100 µM (inactive) | 24.5 µM (inactive) | 88.5 µM (inactive) | 32.8 µM (inactive) | 28 µM (inactive) | > 100 µM (inactive) | 64.3 µM (inactive) |
| CC1(C)CCCC2CC2CCC(C)(C)C1=O (stereo not given) | 42.4 µM (inactive) | > 100 µM (inactive) | > 100 µM (inactive) | 57.9 µM (inactive) | 0.242 µM (active) | 71.9 µM | > 100 µM (inactive) | 56.2 µM (inactive) | 42 µM (inactive) | 18.3 µM (inactive) | 25.5 µM (inactive) | > 100 µM (inactive) | 82.8 µM (inactive) | 25.2 µM (inactive) | 27.4 µM (inactive) | > 100 µM (inactive) | > 100 µM (inactive) | > 100 µM (inactive) | 10.8 µM (inactive) | > 100 µM (inactive) |
| CCCCNC(=O)c1cc2c(cc1Cl)Sc1nccn1S2(=O)=O | > 100 µM (inactive) | 78 µM (inactive) | > 100 µM (inactive) | 70.8 µM (inactive) | > 100 µM (inactive) | 92.9 µM | 24.3 µM (inactive) | > 100 µM (inactive) | > 100 µM (inactive) | 66.4 µM (inactive) | 34 µM (inactive) | 43.7 µM (inactive) | > 100 µM (inactive) | > 100 µM (inactive) | 95.9 µM (inactive) | > 100 µM (inactive) | > 100 µM (inactive) | > 100 µM (inactive) | 57.3 µM (inactive) | > 100 µM (inactive) |
| CC(Oc1ccc(Cl)cc1Cl)C(=O)NN1C(=O)CSC1c1ccccc1 (stereo not given) | 39.3 µM (inactive) | 24 µM (inactive) | 91 µM (inactive) | 90.2 µM (inactive) | > 100 µM (inactive) | > 100 µM | 47.5 µM (inactive) | 64 µM (inactive) | 54.2 µM (inactive) | 55.3 µM (inactive) | 96.4 µM (inactive) | 32.1 µM (inactive) | 51.1 µM (inactive) | 49.2 µM (inactive) | 54.7 µM (inactive) | 60.5 µM (inactive) | 55.8 µM (inactive) | 47.6 µM (inactive) | 3.89 µM (inactive) | > 100 µM (inactive) |
| Clc1cc2ncn(C3CCCO3)c2cc1Cl (stereo not given) | 75.9 µM (inactive) | 19.5 µM (inactive) | > 100 µM (inactive) | 27.5 µM (inactive) | 62.8 µM (inactive) | > 100 µM | > 100 µM (inactive) | 28.9 µM (inactive) | > 100 µM (inactive) | > 100 µM (inactive) | 49.8 µM (inactive) | > 100 µM (inactive) | 77.8 µM (inactive) | 88.9 µM (inactive) | 81.3 µM (inactive) | 99.3 µM (inactive) | > 100 µM (inactive) | > 100 µM (inactive) | 48.3 µM (inactive) | 17.7 µM (inactive) |
